Measurements as given in patent US20220273702A1, “HYDROGEN SULFIDE AND NITRIC OXIDE THERAPY FOR COVID-19 INFECTION” (Board of Supervisors of Louisiana State University and …, priority 2021, published 2022).

Experiments:
CSE = assay type: cell-based
p-eNOS = assay type: cell-based
Total NO = assay: Single COVID-19 case study: plasma total NO (ozone-based chemiluminescence); conditions: single COVID-19 subject, 280 nM during infection, 400 nM baseline
sulfide = assay: Single COVID-19 case study: plasma sulfide (monobromobimane method); assay type: in vivo, human; conditions: single COVID-19 subject, 14 days post-treatment
C-reactive protein (CRP) = assay: Single COVID-19 case study: CRP levels; conditions: single COVID-19 subject, following remdesivir for 5 days; 1.35 and 1.77 mg/dL during infection; normal range 0.3-1.0 mg/dL

SMILES	restoration of CSE protein expression (CSE)	restoration of p-eNOS protein expression (p-eNOS)	Total NO level (Total NO; 5 days post-treatment) [nM]	Total NO level (Total NO; 14 days post-treatment) [nM]	sulfide level (sulfide) [µM]	CRP level (C-reactive protein (CRP)) [mg/dL]
C=CCSSSCC=C [DATS, diallyl trisulfide]	two-fold	two-fold	–	–	–	–
CCC(CC)COC(=O)[C@H](C)N[P@](=O)(OC[C@H]1O[C@@](C#N)(c2ccc3c(N)ncnn23)[C@H](O)[C@@H]1O)Oc1ccccc1 [remdesivir]	–	–	200	280	1.447	0.78
